Laboratory results published in patent publication US20120184586A1, “DESFERRITHIOCIN POLYETHER ANALOGUES AND USES THEREOF” (University of Florida Research Foundation, Inc., priority 2009, published 2012).
Several values for one entry are separate records, joined by “and”; a condition that tells them apart may be missing. Identical values can stand only once. Entries after “also recorded” stand apart in the source; their conditions may differ. Like-named read-outs stand apart in the source and are kept apart here.

Key:
[1] = tested on: iron-overloaded Cebus apella primates; experiment: Chelator-induced iron clearance (ICE) in iron-overloaded Cebus apella primates; assay type: in vivo; settings: for performance ratio (PR), mean ICEprimates/ICErodents: current study; for ICE (iron-clearing efficiency), primates: iron-overloaded C. apella
Experimental: The drugs were administered in capsules (6, 7), solubilized in either 40% Cremophor RH-40/water (1), distilled water (4), or were given as their monosodium salts, prepared by the addition of 1 equiv of NaOH to a suspension of the free acid in distilled water (2, 3, 5). The efficiency of each compound was calculated by subtracting the 24-h iron excretion of control animals from the iron excretion of the treated animals. The number was then divided by the theoretical output; the result is expressed as a percent. […] The relative percentages of the iron excreted in the bile and urine are in brackets. ^cIn the primates [n=4 (1, 3, 4, 5, 6 in capsules, 7) or 7 (2, 6 as the monosodium salt)], the chelators were given po at a dose of 75 μmol/kg (5-7) or 150 μmol/kg (1-4). The drugs were administered in capsules (6^d, 7), solubilized in either 40% Cremophor RH-40/water (1, 3), distilled water (4), or were given as their monosodium salts, prepared by the addition of 1 equiv of NaOH to a suspension of the free acid in distilled water (2, 5, 6^e).
Iron chelators in a Cebus apella monkey model. […] Briefly, the monkeys are iron overloaded with iron dextran administered intravenously to result in an iron loading of about 500 mg per kg of body weight. At least 20 half-lives, 60 days, elapse before the animals are used in experiments evaluating iron chelators. The iron chelators are suspended in vehicle and administered either p.o. or s.c. Fecal and urine samples are collected at 24 hour intervals beginning 4 days prior to the administration of an iron chelator and continued for 5 days after the chelator is administered. Iron concentrations in stool and urine are determined by flame atomic absorption spectroscometry. Iron chelator efficiency is calculated by dividing the net iron clearance [total iron excretion (stool plus urine) minus background] by the theoretical iron clearance and multiplying by 100. The theoretical clearance of the iron chelator is generated on the basis of a 2:1 ligand/iron complex.
Drug preparation and administration. In the iron clearing experiments, the rats were given 5-7 orally at a dose of 300 μmol/kg. Ligand 5 was given by gavage as its monosodium salt (prepared by the addition of 1 equiv of NaOH to a suspension of the free acid in distilled water), while 6 and 7 were given in capsules. The primates were given 5-7 orally at a dose of Ligand 5 was given to the primates by gavage as its monosodium salt. Analogue 6 was given to the monkeys by gavage as its monosodium salt, as well as in capsules. Ligand 7 was given to the monkeys in capsules.

[2] = tested on: non-iron-overloaded, bile duct-cannulated rats; experiment: Chelator-induced iron clearance (ICE, biliary ferrokinetics) in non-iron-overloaded, bile duct-cannulated rodents; assay type: in vivo, rat (male Sprague-Dawley); settings: for time of maximum iron clearance (MIC), biliary ferrokinetics / time until iron excretion is over / returned to baseline, biliary ferrokinetics / ICE (iron-clearing efficiency), rodents: bile duct-cannulated rats; for time of maximum iron clearance (MIC), biliary ferrokinetics / time until iron excretion is over / returned to baseline, biliary ferrokinetics: 300 μmol/kg PO; for ICE relative to parent ligand 2 (times) / ICE relative to trioxa polyether 4 (times): rodents, po 300 μmol/kg
[3] = tested on: iron-overloaded Cebus apella primates; settings: cited from earlier work
rats = experiment: Tissue iron decorporation in rats after 10 days of oral dosing; assay type: in vivo, rat (male Sprague-Dawley)
Source text: Tissue iron decorporation: As described above, rodents were given acid 6 or 7 orally at a dose of 384 μmol/kg/day×10 days. Ethyl ester 7 was also given at a dose of 192 μmol/kg/d×10 days. On day 11, the animals were euthanized and the kidney, liver, pancreas, and heart were removed.
Male Sprague-Dawley rats (300-350 g) were fasted overnight and were given the chelators first thing in the morning. […] Ligand 6 was given to the rats orally once daily at a dose of 384 μmol/kg/d×10 d. Note that this dose is equivalent to 100 mg/kg/day of the DFT sodium salt. The chelator (6) was administered orally in gelatin capsules (n=5), or by gavage as its monosodium salt (n=10). The ethyl ester (7) was administered orally in capsules once daily at a dose of 192 (n=6) or 384 μmol/kg/d (n=5)×10 d. Age-matched rats (n=12) served as untreated controls. The rats were euthanized 24 h post-drug (day 11) and extensive tissues were collected for histopathological analysis. Samples of the kidney, liver, heart and pancreas were reserved and assessed for their iron content.
The initial step in the tissue preparation involved removing any obvious membranes or fat. A sample of each tissue (300-350 mg) was weighed and transferred to acid-washed hydrolysis (pressure) tubes. Note that the same region of each tissue was always utilized. […] The tubes were then sealed and placed in a 120° C. oil bath for 5 h; the tubes were vented as necessary. Then, the tubes were removed from the oil bath and allowed to cool to room temperature. The temperature of the oil bath was decreased to 100° C. Once the samples were cooled, 0.7 mL of hydrogen peroxide (30%) was added to the hydrolysis tube. The samples were placed back in the oil bath and cooked overnight. The samples were then removed from the oil bath and allowed to cool to room temperature. The hydrolysis tubes were vortexed and the digested samples were poured into 50-mL volumetric flasks. The samples were brought to volume using distilled water. Finally, the samples were poured into a syringe and filtered using 0.45μ 30 mm, Teflon syringe filters. Iron concentrations were determined by flame absorption spectroscopy as presented in other publications.^40,41

[4] = historical findings from references; cited from earlier work
[5] = tested on: non-iron-overloaded, bile duct-cannulated rats; settings: historical data, cited from earlier work
[6] = 2:1 complex with Fe(III); cited from earlier work
[7] = trial abandoned by Genzyme; cited from earlier work
[8] = Hydrolysis of ester 7 to acid 6 in Cebus apella monkey plasma; assay type: in vitro ADME; settings: 37° C., solubilized in DMSO
Experimental: (§1) The profound difference between the ICE of the parent acid chelator 6 versus that of the ester 7 in rodents and primates is consistent with two possible explanations: 1) The ester is poorly absorbed from the gastrointestinal (GI) tract in the primates, or 2) The primate non-specific serum esterases simply may not cleave ester 7 to the active chelator acid 6. An experiment was performed using rat and monkey plasma in an attempt to determine if the relatively poor ICE of 7 in the primates was due to interspecies differences in hydrolysis. When 7 was solubilized in DMSO and incubated at 37° C. with rat plasma, all of the ester had been converted to the active acid 6 within 1-2 h. This was also the case when the experiment was carried out with plasma from Cebus apella monkeys. Thus, there is no difference in the hydrolysis of 7 between the rats and the primates. Therefore, the poor ICE of 7 in the monkeys is consistent with the idea that the ester is absorbed much more effectively from the GI tract of the rodents than from the GI tract of the primates. Control experiments were also performed in which saline was used in place of the rat or monkey plasma.
(§2) Plasma analytical methods. […] The chelator concentrations were calculated from the peak area fitted to calibration curves by non-weighted least-squares linear regression with Shimadzu CLASS-NP 7.4 Chromatography Software. […]

[9] = Control incubation of ester 7 in saline in place of plasma; assay type: physicochemical; settings: solubilized in DMSO
Experimental: as §1
The ethyl ester (7) was solubilized in DMSO and further diluted with distilled water to provide a 100 μM solution. A 25 μL aliquot of the drug solution was added to centrifuge tubes containing 100 μL of rat or primate plasma. […]

[10] = Octanol/water partition (log Papp), shake flask direct method, Tris buffer pH 7.4; settings: from log Papp values
Experimental: The efficiency of each compound was calculated by subtracting the 24-h iron excretion of control animals from the iron excretion of the treated animals. The number was then divided by the theoretical output; the result is expressed as a percent. […] The relative percentages of the iron excreted in the bile and urine are in brackets. ^cIn the primates [n=4 (1, 3, 4, 5, 6 in capsules, 7) or 7 (2, 6 as the monosodium salt)], the chelators were given po at a dose of 75 μmol/kg (5-7) or 150 μmol/kg (1-4).
The partition values between octanol and water (at pH 7.4, Tris buffer) were determined using a “shake flask” direct method of measuring log Papp values.^52 The fraction of drug in the octanol is then expressed as log Papp.

[11] = Hydrolysis of ester 7 to acid 6 in rat plasma; assay type: in vitro ADME; settings: 37° C., solubilized in DMSO
Experimental: as §1, §2

[12] = po 75 μmol/kg by gavage as monosodium salt
[13] = 384 μmol/kg/day × 10 days po as sodium salt
[14] = 384 μmol/kg/day × 10 days po in capsules
[15] = bile duct-cannulated rats, po 300 μmol/kg
[16] = 192 μmol/kg/d × 10 days po in capsules

With `COCCOCCOCCOCCOc1ccc(C2=N[C@@](C)(C(=O)O)CS2)c(O)c1` [ligand 5, (S)-4,5-dihydro-2-[2-hydroxy-4-(3,6,9,12-tetraoxamidecyloxy)phenyl]-4-methyl-4-thiazolecarboxylic acid] the “performance ratio (PR), mean ICEprimates/ICErodents” value [1] was 0.82, the “ICE (iron-clearing efficiency), primates” value [1, 12] was 9.8±1.9% and the “time of maximum iron clearance (MIC), biliary ferrokinetics” value (shortened to “time of maximum iron clearance (MIC)”) [2] was 6 h. For the same compound, the “time until iron excretion is over / returned to baseline, biliary ferrokinetics” value [2] was 24 h, the “ICE (iron-clearing efficiency), rodents” value ([2]; po 300 μmol/kg by gavage as monosodium salt) was 12.0±1.5% and the “ICE relative to parent ligand 2 (times)” value [2] was ~11. The “ICE relative to trioxa polyether 4 (times)” value [2] was “twice as effective”.
In the case of `COCCOCCOCCOc1ccc(O)c(C2=NC(C)(C(=O)O)CS2)c1` (single isomer, unassigned) [5′-isomer of 4], the “performance ratio (PR), mean ICEprimates/ICErodents” value ([3]; previously reported (ref 46)) is listed as 1 and the “ICE (iron-clearing efficiency), primates” value ([3]; previously reported, dose not stated) is listed as 8.1±2.8%.
In the case of `COCCOCCOc1ccc(C2=N[C@@](C)(C(=O)O)CS2)c(O)c1` [ligand 6, (S)-4,5-dihydro-2-[2-hydroxy-4-(3,6-dioxaheptyloxy)phenyl]-4-methyl-4-thiazolecarboxylic acid], the “performance ratio (PR), mean ICEprimates/ICErodents” value [1] is reported as 1.0, the “ICE (iron-clearing efficiency), primates” value [1, 12] is reported as 28.7±12.4% and the “ICE (iron-clearing efficiency), primates” value ([1]; po 75 μmol/kg in capsules) is reported as 26.3±9.9% and > 26%. For the same compound, the “decrease of cardiac iron vs untreated controls” value (“decrease of cardiac iron” below) (rats; [13]) was 9.9%, the “reduction of liver iron vs untreated controls” value (“reduction of liver iron” for short) (rats; [13]) was > 35% and the “reduction of pancreatic iron vs untreated controls” value (“reduction of pancreatic iron” for short) (rats; [13]) was “significant reduction in pancreatic iron”. For the same compound, the “reduction of renal iron content vs untreated controls” value (from here on “reduction of renal iron content”) (rats; [13]) was 24.8%, the “decrease of cardiac iron” value (rats; [14]) was 6.9% and the “reduction of liver iron” value (rats; [14]) was > 35%. For the same compound, the “reduction of pancreatic iron” value (rats; [14]) was “but not when it was dosed in capsules”, the “reduction of renal iron content” value (rats; [14]) was 7.4% and the “ICE (iron-clearing efficiency), rodents” value ([2]; po 300 μmol/kg in capsules) was > 26%. The “ICE (iron-clearing efficiency), rodents” value ([2]; po 300 μmol/kg in capsules, listed as 6) was 26.7±4.7% and the “ICE relative to trioxa polyether 4 (times)” value [2] was “nearly five times greater”.
For `C[C@]1(C(=O)O)CSC(c2ncccc2O)=N1` [ligand 1, (S)-4,5-dihydro-2-(3-hydroxy-2-pyridinyl)-4-methyl-4-thiazolecarboxylic acid], the nephrotoxicity [4] is listed as “severely nephrotoxic”, the “ICE (iron-clearing efficiency), rodents” value ([5]; bile duct-cannulated rodent model, po 150 μmol/kg) is listed as 5.5% and the “log β2” value [6] is listed as 29.6. The “ICE (iron-clearing efficiency), primates” value ([3]; iron-overloaded C. apella, po 150 μmol/kg, historical data) was 16%.
For `C[C@]1(C(=O)O)CSC(c2ccc(O)cc2O)=N1` [ligand 2, (S)-2-(2,4-dihydroxyphenyl)-4,5-dihydro-4-methyl-4-thiazolecarboxylic acid], the “ICE (iron-clearing efficiency), rodents” value [5, 15] is listed as 1.1±0.8%, the clinical trial outcome [7] is listed as “abandoned by Genzyme because of renal toxicity” and the “time of maximum iron clearance (MIC)” value [2] is listed as 3 h. For the same compound, the “time until iron excretion is over / returned to baseline, biliary ferrokinetics” value [2] was 9 h.
In the case of `COc1ccc(C2=N[C@@](C)(C(=O)O)CS2)c(O)c1` [ligand 3, (S)-4,5-dihydro-2-(2-hydroxy-4-methoxyphenyl)-4-methyl-4-thiazolecarboxylic acid], the nephrotoxicity [4] is given as “very nephrotoxic; also recorded: unacceptably nephrotoxic”.
In the case of `CCOC(=O)[C@@]1(C)CSC(c2ccc(OCCOCCOC)cc2O)=N1` [ligand 7, ethyl (S)-4,5-dihydro-2-[2-hydroxy-4-(3,6-dioxaheptyloxy)phenyl]-4-methyl-4-thiazolecarboxylate], the “time for conversion of all of the ester to the active acid 6” value [8] is reported as 1 to 2 h, the “performance ratio (PR), mean ICEprimates/ICErodents” value [1] is reported as 0.33 and the “ICE (iron-clearing efficiency), primates” value ([1]; po 75 μmol/kg in capsules) is reported as 8.8±2.2%. For the same compound, the “ICE relative to acid 6” value ([1]; primates) was “only one third”, the “stability of the ester in saline” value [9] was “all of the drug remained in the form of the ester” and the “fold difference in partition” value ([10]; 7 vs 1) was “greater than 58.000 fold”. For the same compound, the “times more lipophilic than the parent 2” value ([10]; 7 vs 2) was 11,220, the “time for conversion of all of the ester to the active acid 6” value [11] was 1 to 2 h and the “decrease of cardiac iron” value (rats; [16]) was “Neither dose was associated with a reduction”. For the same compound, the “reduction of liver iron” value (rats; [16]) was 27%, the “reduction of pancreatic iron” value (rats; [16]) was “Neither dose was associated with a reduction” and the “reduction of renal iron content” value (rats; [16]) was 12.6%. For the same compound, the “decrease of cardiac iron” value (rats; [14]) was “Neither dose was associated with a reduction”, the “reduction of liver iron” value (rats; [14]) was 59.1% and the “reduction of pancreatic iron” value (rats; [14]) was “Neither dose was associated with a reduction”. For the same compound, the “reduction of renal iron content” value (rats; [14]) was 32.1%, the “ICE (iron-clearing efficiency), rodents” value ([2]; po 300 μmol/kg in capsules) was 25.9±6.5% and the “ICE relative to parent ligand 2 (times)” value [2] was “approximately 24”.
In the case of `COCCOCCOCCOc1ccc(C2=N[C@@](C)(C(=O)O)CS2)c(O)c1` [ligand 4, (S)-4,5-dihydro-2-[2-hydroxy-4-(3,6,9-trioxadecyloxy)phenyl]-4-methyl-4-thiazolecarboxylic acid, reference compound], the nephrotoxicity [4] is listed as “virtually absent of any nephrotoxicity”, the “ICE (iron-clearing efficiency), rodents” value [5, 15] is listed as 5.5±1.9% and the “ICE relative to longer analogue 5 (times)” value ([1]; primates) is listed as 2.5. For the same compound, the “time of maximum iron clearance (MIC)” value [2] was 3 h, the “time until iron excretion is over / returned to baseline, biliary ferrokinetics” value [2] was 12 h and the “ICE relative to parent ligand 2 (times)” value [2] was “five times greater”.
